This passage reports TGI and GI50 results from PubChem BioAssay (NCI).

Each structure is given as a SMILES string.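 These data come from cells grown in 96-well plates and exposed to compound for 48 hours at five concentrations. GI50 is the concentration that inhibits growth by half. TGI is the concentration that stops growth completely.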 Some results are limits rather than exact numbers.

Test systems include EKVX NSCLC; HCT-15 colon; HL-60(TB) leukemia; HOP-62 NSCLC; MOLT-4 leukemia; NCI-H460 lung; OVCAR-5 ovarian; RXF 393 renal; SK-MEL-2 melanoma; SNB-75 CNS.
What all share (test): growth of human tumour cells (NCI), 48 h

For the compound `CC(=O)Nc1ccc(C2[C@H]3C(=O)N(c4ccc(Cc5ccc(N6C(=O)[C@@H]7ON(c8ccccc8)C(c8ccc(NC(C)=O)cc8)[C@@H]7C6=O)cc5)cc4)C(=O)[C@H]3ON2c2ccccc2)cc1` (some centres not stated), the TGI with EKVX NSCLC, in the experiment on HCT-15 colon, in the experiment with HL-60(TB) leukemia, in the experiment with HOP-62 NSCLC, in the experiment on MOLT-4 leukemia and with NCI-H460 lung was above 100 µM in each case. Moreover, the TGI in the experiment with OVCAR-5 ovarian, in the experiment on RXF 393 renal, in the experiment with SK-MEL-2 melanoma and with SNB-75 CNS was above 100 µM throughout.

In the case of `C=C1C(=O)O[C@H]2[C@H]1CC/C(Cn1cc(-c3ccccc3)nn1)=C\CC[C@@]1(C)O[C@@H]21`, the GI50 is 6.87 µM in the experiment with EKVX NSCLC; 0.769 µM in the experiment with HCT-15 colon; 1.49 µM in the experiment with HL-60(TB) leukemia; 7.41 µM with HOP-62 NSCLC; 1.29 µM in the experiment with MOLT-4 leukemia; 7.74 µM in the experiment with NCI-H460 lung. In addition, the GI50 in the experiment with OVCAR-5 ovarian is 5.7 µM; in the experiment with RXF 393 renal it was 1.55 µM; in the experiment with SK-MEL-2 melanoma it was 5.5 µM; in the experiment on SNB-75 CNS it was 6.21 µM. Also, the TGI in the experiment with EKVX NSCLC turned out to be 13.3 µM; with HCT-15 colon, 1.68 µM; with HL-60(TB) leukemia, 5.64 µM; in the experiment with HOP-62 NSCLC, 15.1 µM; in the experiment with MOLT-4 leukemia it was 3.53 µM; with NCI-H460 lung, 23.3 µM. For the same compound, the TGI in the experiment on OVCAR-5 ovarian came to 13.3 µM; in the experiment on RXF 393 renal, 4.22 µM; in the experiment on SK-MEL-2 melanoma, 12.5 µM; with SNB-75 CNS, 13 µM.

Turning to `CCN(CC)CCCCCCCNc1c2ccc(Cl)cc2nc2ccc(OC)cc12`, the GI50 in the experiment with EKVX NSCLC was 1.51 µM; with HCT-15 colon it was 0.997 µM; in the experiment with HL-60(TB) leukemia it was 1.71 µM; in the experiment with HOP-62 NSCLC it was 0.943 µM; with MOLT-4 leukemia it was 0.372 µM; in the experiment on NCI-H460 lung it was 0.416 µM. The GI50 is 1.78 µM with OVCAR-5 ovarian, 0.84 µM in the experiment with RXF 393 renal, 1.56 µM in the experiment with SK-MEL-2 melanoma and 1.29 µM in the experiment on SNB-75 CNS. The TGI stood at 4.99 µM with EKVX NSCLC; 6.59 µM in the experiment on HCT-15 colon; 3.62 µM with HL-60(TB) leukemia; 2.54 µM in the experiment with HOP-62 NSCLC; 2.32 µM in the experiment with MOLT-4 leukemia; 1.67 µM in the experiment with NCI-H460 lung. Moreover, the TGI in the experiment on OVCAR-5 ovarian was 7.55 µM; with RXF 393 renal, 2.35 µM; in the experiment with SK-MEL-2 melanoma, 3.77 µM; in the experiment on SNB-75 CNS, 2.62 µM.

`COC(=O)C1=C(O)C(O)=C(C(=O)OC)C1`: the TGI in the experiment with EKVX NSCLC, with HCT-15 colon, with HL-60(TB) leukemia, in the experiment on HOP-62 NSCLC, in the experiment with MOLT-4 leukemia and with NCI-H460 lung was above 100 µM in each case. The TGI with OVCAR-5 ovarian, in the experiment on RXF 393 renal, in the experiment on SK-MEL-2 melanoma and in the experiment on SNB-75 CNS was above 100 µM each time.

Consider `CC1NOC(=O)C1N=Nc1ccccc1Cl` (configuration not stated), for which the TGI in the experiment with EKVX NSCLC is above 100 µM; in the experiment on HL-60(TB) leukemia, 52.2 µM; in the experiment with HOP-62 NSCLC it was above 100 µM; in the experiment on NCI-H460 lung it was above 100 µM; in the experiment on OVCAR-5 ovarian, above 100 µM; in the experiment on RXF 393 renal, above 100 µM. The values for the TGI in the experiment with SK-MEL-2 melanoma and in the experiment on SNB-75 CNS were above 100 µM and 62.4 µM, respectively.

As for `O=S1(=O)C[C@@H](O)[C@H](O)CS1`, the TGI in the experiment with EKVX NSCLC, in the experiment on HL-60(TB) leukemia, with HOP-62 NSCLC, in the experiment with MOLT-4 leukemia, in the experiment with NCI-H460 lung and with OVCAR-5 ovarian was above 100 µM each time. In addition, the TGI in the experiment on RXF 393 renal and with SNB-75 CNS was above 100 µM each time.

With `ON=C1CCC(c2ccccc2)CC1` (configuration not stated), the TGI with EKVX NSCLC, in the experiment with HCT-15 colon, in the experiment with HL-60(TB) leukemia, with HOP-62 NSCLC, in the experiment with NCI-H460 lung and in the experiment on OVCAR-5 ovarian was above 100 µM throughout. The TGI with RXF 393 renal, with SK-MEL-2 melanoma and in the experiment on SNB-75 CNS was above 100 µM throughout.

For the compound `CC(C(=O)Oc1ccc2ccccc2c1-c1c(O)ccc2ccccc12)c1ccccc1` (configuration not stated), the TGI was determined as 37.3 µM with EKVX NSCLC; 27.2 µM with HCT-15 colon; 35.1 µM with HL-60(TB) leukemia; 29.8 µM in the experiment with HOP-62 NSCLC; 44.8 µM with MOLT-4 leukemia; 27.6 µM in the experiment on NCI-H460 lung. Also, the values for the TGI in the experiment on OVCAR-5 ovarian, in the experiment with RXF 393 renal and with SK-MEL-2 melanoma were 31 µM, 22.9 µM and 29.7 µM, respectively.

With `O=C(c1ccccc1)c1c(C(=O)c2ccccc2)c(-c2ccccc2)c2c(-c3ccccc3)sc(-c3ccccc3)c2c1-c1ccccc1`, the TGI with EKVX NSCLC, in the experiment with HCT-15 colon, in the experiment with HL-60(TB) leukemia, in the experiment with HOP-62 NSCLC, in the experiment on NCI-H460 lung and in the experiment on OVCAR-5 ovarian was above 100 µM in each case. Besides, the TGI in the experiment with RXF 393 renal and in the experiment with SNB-75 CNS was above 100 µM in each case.

On to `O=c1cc(-c2ccccc2)nc2n1CCN2Cc1ccccc1`, for which the GI50 with EKVX NSCLC was 30.5 µM; in the experiment with HCT-15 colon it was 31.2 µM; in the experiment with HL-60(TB) leukemia it was 33.1 µM; in the experiment on HOP-62 NSCLC it was 63.8 µM; with MOLT-4 leukemia, 20.2 µM; in the experiment on NCI-H460 lung, 36 µM. Moreover, the GI50 is 46.2 µM in the experiment on RXF 393 renal, 20.5 µM in the experiment with SK-MEL-2 melanoma and 60.5 µM with SNB-75 CNS. For the same compound, the TGI with EKVX NSCLC was 96.1 µM; in the experiment on HCT-15 colon it was above 100 µM; with HL-60(TB) leukemia it was 58.2 µM; in the experiment on HOP-62 NSCLC, above 100 µM; in the experiment with MOLT-4 leukemia, 79.5 µM; with NCI-H460 lung, above 100 µM. Also, the TGI in the experiment on RXF 393 renal was above 100 µM; in the experiment with SK-MEL-2 melanoma, 50.5 µM; in the experiment with SNB-75 CNS it was above 100 µM.

`O=C(NOCC1CC1)c1ccc(F)c(F)c1Nc1ccc(I)cc1Cl`: the GI50 in the experiment with HCT-15 colon is 1.57 µM; in the experiment on HL-60(TB) leukemia, 0.19 µM; in the experiment on HOP-62 NSCLC it was 2.04 µM; in the experiment on MOLT-4 leukemia it was 3.35 µM; in the experiment with NCI-H460 lung, 2.42 µM; in the experiment with OVCAR-5 ovarian, 0.0764 µM. Besides, the GI50 with RXF 393 renal is 2.11 µM; in the experiment on SK-MEL-2 melanoma, 0.166 µM; in the experiment on SNB-75 CNS, 2.15 µM. Further, the TGI in the experiment with HCT-15 colon is above 32.7 µM; in the experiment with HL-60(TB) leukemia, 8.26 µM; in the experiment on HOP-62 NSCLC, above 100 µM; in the experiment with MOLT-4 leukemia it was 25.6 µM; with NCI-H460 lung, above 100 µM; with RXF 393 renal, 8.95 µM. For the same compound, the TGI with SK-MEL-2 melanoma is 2.05 µM; in the experiment on SNB-75 CNS, above 45.2 µM.
